Data reported in patent publication US20180250284A1, “QUINOLINE DERIVATIVES FOR USE IN TREATING LEUKODYSTROPHY AND TREATMENT METHOD” (GEORG-AUGUST-UNIVERSITÄT GÖTTINGEN STIFTUNG ÖFFENTLICHEN …, priority 2015, published 2018).

How the values were obtained:
[1] = test system: microglia cells stimulated with 1 μg/ml LPS and 5 mM ATP; experiment: IL1β ELISA of supernatants of LPS/ATP stimulated microglia cells; format: cell-based; settings: at high concentrations of laquinimod
Experimental: FIG. 3: Titration of laquinimod to microglia cells stimulated with 1 μg/ml LPS and 5 mM ATP. Microglia cell supernatants were analyzed for IL1β by ELISA.

[2] = test system: Cnp-Cre Pex5^fl/fl Rag1^−/− mice; experiment: balanced beam test (motor coordination / walking ability); format: in vivo; settings: 25 mg/kg oral gavage 6 out 7 days/week from age 6 weeks to month 6; vs H2O treated controls; significant from the age of 4 months
Experimental: Cnp-Cre Pex5^fl/fl Rag1^−/− mice received either H2O (Ctrl, n=18) or laquinimod (25 mg/kg, n=11) at 6 out 7 days/week by oral gavage. Treatment was initiated at the age of 6 weeks. Unpaired t test, **<0.01; ***<0.001. Cnp-Cre Pex5^fl/fl Rag1^−/− mice were generated by crossbreeding of Cnp-Cre Pex5^fl/fl mice with Rag1^−/− mice. Mice of both sexes received 25 mg/kg Laquinimod or water by oral gavage 6 out 7 days/week and treatment was initiated at the age of 6 weeks. Motor coordination was assessed with a balanced beam test. Mice were put on a beam (width 1.5 cm) and allowed to run toward a hiding box. After a training period, the time to pass a distance of 0.6 m was measured (three repeats per time point).

[3] = test system: cuprizone model; settings: cited from earlier work
[4] = test system: Cnp-Cre Pex5^fl/fl Rag1^−/− mice; experiment: histological and morphological analyses of the corpus callosum at month 6; format: in vivo; settings: 25 mg/kg oral; for extent of demyelination / myelin loss in the corpus callosum: luxol fast blue, vs vehicle/water treated mice
Experimental: FIG. 2: Quantification of axonal damage (APP), microglia/macrophage cell numbers (Mac3), demyelination and adult oligodendrocytes (NogoA) in the corpus callosum (CC) of CNP-Cre Pex^fl/fl RAG1^−/− mice at the age of 6 months. Cnp-Cre Pex5^fl/fl Rag1^−/− mice were generated by crossbreeding of Cnp-Cre Pex5^fl/fl mice with Rag1^−/− mice. Mice of both sexes received 25 mg/kg Laquinimod or water by oral gavage 6 out 7 days/week and treatment was initiated at the age of 6 weeks. Mice were perfused transcardially at month 6 with cold PBS followed by 4% paraformaldehyde (PFA). Brains and spinal cords were post-fixed for 2 days and then paraffin-embedded. Sections between 0.5-1 μm were cut and processed for immunohistochemistry (IHC) according to standard protocols. Demyelination was evaluated on sections stained with luxol fast blue (LFB). For the staining of macrophages the antibody MAC387 (mouse anti-L1 antibody MAC387, GeneTex, 1:150) was used. Axonal density was evaluated on Bielschowsky silver stained sections. That is, in order to identify the mechanisms how laquinimod is beneficial in the CNP-Cre Pex^fl/fl RAG1^−/− mouse model, we analyzed and quantified the extent of demyelination, axonal damage and macrophage and adult oligodendrocyte numbers in immunohistochemically stained sections of the corpus callosum at month 6 in laquinimod and vehicle treated mice. […] The extent of demyelination was diminished and the numbers of preserved adult oligodendrocytes were increased, see FIG. 2.

[5] = test system: Knockout mice (Cnp-Pex5, Cnp1-Cre*PEX5flox/flox, Pex5^flox/flox*Cnp-Cre/+, Nestin-Pex5, NEX-Pex5, GFAP-Pex5^−/−); experiment: effect of various doses of laquinimod on Pex5 knockout mice; format: in vivo
Experimental: Knockout mice of one or more of the following strains are used: Cnp-Pex5, Cnp1-Cre*PEX5flox/flox, Pex5^flox/flox*Cnp-Cre/+, Nestin-Pex5, NEX-Pex5, and GFAP-Pex5^−/−.
The effect of various doses of laquinimod on knockout mice is assessed.

[6] = test system: Patients with PBD; experiment: trial of laquinimod for PBD in human patients; format: in vivo
Experimental: A trial is conducted to evaluate the safety, tolerability and clinical effect of laquinimod for PBD in human patients. Patients with PBD are enrolled. The patient has been affirmatively diagnosed to have PBD. […] Capsule(s) containing laquinimod and/or matching placebo are administered orally once daily at dosages approved by the study Safety Committee. Patients are randomized into one of the treatment arms in a ratio that allows for reaching an overall target enrollment.

[7] = test system: multiple sclerosis (MS) patients; settings: two phase III trials; cited from earlier work
[8] = test system: Patients with leukodystrophy; experiment: trial of laquinimod in leukodystrophy human patients; format: in vivo; settings: capsules orally once daily
Experimental: A trial is conducted to evaluate the safety, tolerability and clinical effect of laquinimod in leukodystrophy human patients. Patients with leukodystrophy are enrolled. The patient has been affirmatively diagnosed to have leukodystrophy. […] Capsule(s) containing laquinimod and/or matching placebo are administered orally once daily at dosages approved by the study Safety Committee. Patients are randomized into one of the treatment arms in a ratio that allows for reaching an overall target enrollment.

[9] = in vivo; cited from earlier work
[10] = test system: EAE model; settings: cited from earlier work
[11] = age of 6 months, vs vehicle treated mice
[12] = capsules orally once daily, human patients

## CCN(C(=O)c1c(O)c2c(Cl)cccc2n(C)c1=O)c1ccccc1 [laquinimod, 5-chloro-N-ethyl-4-hydroxy-1-methyl-2-oxo-N-phenyl-1,2-dihydroquinoline-3-carboxamide]
[1]
  amount of IL1β in LPS stimulated microglia cell cultures: significantly reduced
[2]
  walking ability / motor coordination on elevated beam test: significantly better
[3]
  demyelination: reduces
  microglia and astrocyte activation: inhibits
[4]; age of 6 months
  extent of demyelination / myelin loss in the corpus callosum: less extensive
[4]; age of 6 months, listed as Laquinimod
  extent of demyelination / myelin loss in the corpus callosum: diminished
[4]; [11]
  axonal damage (APP positive axons) in the corpus callosum: significantly reduced
  microglia/macrophage cell numbers (Mac3) in the corpus callosum: significantly reduced
  numbers of preserved adult oligodendrocytes (NogoA) in the corpus callosum: increased
[4]; vs water treated controls
  microglia activation: reduced
  preservation of axons (axonal loss): better preserved
[4]; vs water treated controls, listed as Laquinimod
  microglia activation: less abundant
[5]
  accumulation of lipid droplets and VLCFA, depletion of plasmalogens, impairment of myelin, axonal degeneration, astrogliosis, and/or microgliosis: reduces
  cognitive function: improves
  hindlimb ataxia, kyphosis, hindlimb paresis, forelimb ataxia, tremor, hindlimb paralysis, and/or passiveness: reduces
  motor function: improves
[6]; [12]
  motor symptoms of PBD: alleviates or eliminates
  one or more symptoms of PBD: alleviates or eliminates
[6]; humans, Example 3.1
  symptoms of Zellweger Syndrome (ZS): alleviates or eliminates
[6]; humans, Example 3.2
  symptoms of Neonatal Adrenoleukodystrophy (NALD): alleviates or eliminates
[6]; humans, Example 3.3
  symptoms of Infantile Refsum Disease (IRD): alleviates or eliminates
[7]
  safety and tolerability profile: favorable
[8]
  motor symptoms of leukodystrophy: alleviates or eliminates
  one or more symptoms of leukodystrophy: alleviates or eliminates
[9]
  oral bioavailability: high
[10]
  axonal injury: reduces
  microglia and astrocyte activation: inhibits
